These results are taken from ChEMBL document CHEMBL4393711, “Discovery and synthesis of novel indole derivatives-containing 3-methylenedihydrofuran-2(3H)-one as irreversible LSD1 inhibitors” (Eur J Med Chem, 2019).

Some results are limits rather than exact numbers.

In test [1] the target is T1, Lysine-specific histone demethylase 1A (Homo sapiens, UniProt O60341). Description: Inhibition of recombinant LSD1 (unknown origin) (catalytic domain 157 to 852 residues) expressed in Escherichia coli BL21 using H3K4me1 as substrate incubated for 1 hr by horse-radish peroxidase/amplex red-based fluorescence method.
Test [2] relates to THP-1. Kind of test: Inhibition of colony formation in human THP1 cells incubated for 2 weeks by microscopic analysis. The class given is functional, cell-based.
Test [3] has as its system THP-1. Description: Antiproliferative activity against human THP1 cells assessed as reduction in cell viability incubated for 5 days by MTT assay. The conditions noted are these: THP-1, 120 h.
The subject of test [4] is THP-1. Kind of test: Induction of cellular morphology change in human THP1 cells assessed as blurred cell membrane boundaries with chromatin shrinkage incubated for 3 days by hematoxylin and eosin staining based microscopic analysis. The format is functional.
For test [5], the target named is T1, Lysine-specific histone demethylase 1A.
Description: Binding affinity to recombinant LSD1 (unknown origin) assessed as change in melting temperature at 50 uM by SYPRO orange dye based thermal shift assay
The target is the same in test [6]. The source holds these as a separate data set.
Description: Binding affinity to recombinant LSD1 (unknown origin) assessed as change in melting temperature at 100 uM by SYPRO orange dye based thermal shift assay
Test [7] has the same target. This is another data set of the same source.
Description: Binding affinity to LSD1 (unknown origin) assessed as dissociation rate constant by SPR assay
For test [8] the target is unchanged. This is another data set of the same source.
Description: Binding affinity to LSD1 (unknown origin) assessed as association constant by SPR assay
For test [9] the target is unchanged. The source holds these as a separate data set.

`O=C(/C=C/c1cccs1)c1cn(Cc2ccc(F)cc2)c2ccc(Cl)cc12`: the half-inhibitory concentration (IC50) in test [1] was over 10 µM.

Consider `C=C1C(=O)OCC1C(O)c1cn(C(=O)C2CC2)c2ccc(Cl)cc12` (stereo unspecified), for which the IC50 in [1] was over 10 µM.

With `C=C1C(=O)OCC1C(O)c1cn(Cc2nc3ccccc3s2)c2ccc(Cl)cc12` (stereo unspecified), the IC50 in test [1] was over 10 µM.

`C=C1C(=O)OCC1C(O)c1cn(C(=O)c2cccnc2Cl)c2ccc(Cl)cc12` (stereo unspecified): the IC50 in test [1] was over 10 µM.

Regarding `OC(c1ccccc1)c1cn(Cc2ccc(F)cc2)c2ccc(Cl)cc12` (stereo unspecified), the IC50 in test [1] is over 10 µM.

Regarding `C=C1C(=O)OCC1C(O)c1cn(Cc2ccc(Cl)cc2)c2cccc(OC)c12` (stereo unspecified), in test [1], the IC50 is over 10 µM.

With `CC(=O)c1cn(Cc2ccc(F)cc2)c2ccc(Cl)cc12`, the half-inhibitory concentration (IC50) in [1] was over 10 µM.

As to `C=C1C(=O)OCC1C(O)c1cn(Cc2ccc(Cl)cc2)c2ccc(Cl)cc12` (stereo unspecified), in test [1], the 50% inhibitory concentration (IC50) is over 10 µM.

Consider `C=C1C(=O)OCC1C(O)c1cn(Cc2nc3ccccc3[nH]2)c2ccc(Cl)cc12` (stereo unspecified), for which the half-maximal inhibitory concentration (IC50) in test [1] is over 10 µM.

As to `C=C1C(=O)OCC1C(O)c1cn(Cc2ncccn2)c2ccc(Cl)cc12` (stereo unspecified), the IC50 in test [1] is over 10 µM.

As to `C=C1C(=O)OCC1C(O)c1cn(C(=O)/C=C/c2ccccc2)c2ccc(Cl)cc12` (stereo unspecified), in [1], the IC50 is over 10 µM.

Regarding `O/N=C(\c1ccccc1)c1cn(Cc2ccc(F)cc2)c2ccc(Cl)cc12`, the half-inhibitory concentration (IC50) in test [1] is over 10 µM.

`C=C1C(=O)OCC1C(O)c1cn(Cc2csc(N)n2)c2ccc(Cl)cc12` (stereo unspecified): the IC50 in test [1] was over 10 µM.

With `O=C(c1ccnc(Cl)c1)c1cn(Cc2ccc(F)cc2)c2ccc(Cl)cc12`, the IC50 in test [1] was over 10 µM.

As to `C=C1C(=O)OCC1C(O)c1cn(Cc2ccc(Cl)cc2)c2cc(OC)ccc12` (stereo unspecified), the concentration for half-maximal inhibition (IC50) in test [1] was over 10 µM.

For the compound `C=C1C(=O)OCC1C(O)c1cn(Cc2cnc(Cl)s2)c2ccc(Cl)cc12` (stereo unspecified), the IC50 in [1] was over 10 µM.

On to `C=C1C(=O)OCC1C(O)c1cn(Cc2ccc(F)cc2)c2ccc(Cl)cc12` (stereo unspecified), for which the inhibition result in the test on THP-1 [2] is “Dose-dependent effect”. Moreover, the half-maximal inhibitory concentration (IC50) in the test on THP-1 [3] came to 1200 nM. The Activity result in the test on THP-1 [4] is “Dose-dependent effect”.

As for `O=C(c1ccc(F)cc1)c1cn(Cc2ccc(F)cc2)c2ccc(Cl)cc12`, the 50% inhibitory concentration (IC50) in test [1] was over 10 µM.

Regarding `C=C1C(=O)OCC1C(O)c1cn(Cc2ccncc2)c2ccc(Cl)cc12` (stereo unspecified), the 50% inhibitory concentration (IC50) in test [1] is over 10 µM.

`C=C1C(=O)OCC1C(O)c1cn(Cc2ccc(Cl)cc2)c2ccc(OC)cc12` (stereo unspecified): in [1], the concentration for half-maximal inhibition (IC50) was over 10 µM.

Consider `C=C1C(=O)OCC1C(O)c1cn(Cc2ccc(Cl)cc2)c2cc(Cl)ccc12` (stereo unspecified), for which the 50% inhibitory concentration (IC50) in test [1] is over 10 µM.

Turning to `O=C(/C=C/c1ccco1)c1cn(Cc2ccc(F)cc2)c2ccc(Cl)cc12`, the IC50 in test [1] is over 10 µM.

For the compound `c1ccc([C@@H]2C[C@H]2NC2CCNCC2)cc1`, the ΔTm was 2.21 °C in test [5], 4.28 °C in [6] and 8.37 °C in test [9]. Besides, the inhibition result in the test on THP-1 [2] is “Dose-dependent effect”. In [7], this compound yielded a Kdiss of 1.11 ×10⁻¹ /s. Moreover, the Activity entry in the test on THP-1 [4] is “Dose-dependent effect”. Moreover, the Ka in test [8] is 2.6 ×10³ /M.s.

With `O=C(c1cn(Cc2ccc(F)cc2)c2ccc(Cl)cc12)C1CC1`, the IC50 in [1] was over 10 µM.

As to `O=C(c1ccco1)c1cn(Cc2ccc(F)cc2)c2ccc(Cl)cc12`, the half-inhibitory concentration (IC50) in test [1] is over 10 µM.

In the case of `O=C(c1ccccc1)c1cn(Cc2ccc(F)cc2)c2ccc(Cl)cc12`, the 50% inhibitory concentration (IC50) in test [1] was over 10 µM.

For `C=C1C(=O)OCC1C(O)c1cn(Cc2ccc(Cl)cc2)c2ccc(F)cc12` (stereo unspecified), the concentration for half-maximal inhibition (IC50) in test [1] was over 10 µM.

For the compound `Cc1ccc(C(=O)c2cn(Cc3ccc(F)cc3)c3ccc(Cl)cc23)cc1`, the 50% inhibitory concentration (IC50) in [1] was over 10 µM.

For the compound `C=C1C(=O)OCC1C(O)c1cn(Cc2ccc(Cl)cc2)c2c(Cl)cccc12` (stereo unspecified), in test [1], the IC50 was over 10 µM.

As for `C=C1C(=O)OCC1C(O)c1cn(Cc2cncc(C)c2)c2ccc(Cl)cc12` (stereo unspecified), the 50% inhibitory concentration (IC50) in [1] is over 10 µM.

Regarding `C=C1C(=O)OCC1C(O)c1cn(CC2CC2)c2ccc(Cl)cc12` (stereo unspecified), the IC50 in test [1] is over 10 µM.

For the compound `C=C1C(=O)OCC1C(O)c1cn(C(=O)c2c(C)noc2C)c2ccc(Cl)cc12` (stereo unspecified), the IC50 in test [1] is over 10 µM.

Turning to `C=C1C(=O)OCC1C(O)c1cn(Cc2ccc(Cl)cc2)c2c(OC)cccc12` (stereo unspecified), in test [1], the IC50 is over 10 µM.

For `C=C1C(=O)OCC1C(O)c1cn(Cc2nc(C)c3ccccc3n2)c2ccc(Cl)cc12` (stereo unspecified), the concentration for half-maximal inhibition (IC50) in test [1] was over 10 µM.

Turning to `CC1=CCSC1C(=O)c1cn(Cc2ccc(F)cc2)c2ccc(Cl)cc12` (stereo unspecified), the half-maximal inhibitory concentration (IC50) in test [1] is over 10 µM.

Consider `C=C1C(=O)OCC1C(O)c1cn(Cc2ccc(Cl)cc2)c2cccc(Cl)c12` (stereo unspecified), for which, in test [1], the IC50 is over 10 µM.

As for `C=C1C(=O)OCC1C(O)c1cn(C(=O)c2ccco2)c2ccc(Cl)cc12` (stereo unspecified), in test [1], the IC50 was over 10 µM.

`C=C1C(=O)OCC1C(O)c1cn(Cc2ccc(Cl)s2)c2ccc(Cl)cc12` (stereo unspecified): the IC50 in [1] is over 10 µM.

In the case of `C=C1C(=O)OCC1C(O)c1cn(Cc2c(C)noc2C)c2ccc(Cl)cc12` (stereo unspecified), the IC50 in test [1] was over 10 µM.

`O=C(c1ccncc1)c1cn(Cc2ccc(F)cc2)c2ccc(Cl)cc12`: the IC50 in [1] was over 10 µM.

With `C=C1C(=O)OCC1C(O)c1cn(C(=O)c2sccc2C)c2ccc(Cl)cc12` (stereo unspecified), the IC50 in [1] was over 10 µM.

Regarding `C=C1C(=O)OCC1C(O)c1cn(Cc2nc3ccccc3o2)c2ccc(Cl)cc12` (stereo unspecified), in [1], the IC50 was over 10 µM.

In the case of `C=C1C(=O)OCC1C(O)c1cn(Cc2ccc(Cl)cn2)c2ccc(Cl)cc12` (stereo unspecified), in [1], the IC50 was over 10 µM.
